Data on 7 molecules can be found in patent US12358918B2, “Aryl hydrocarbon receptor (AHR) activator compounds as cancer therapeutics” (THE BROAD INSTITUTE, INC., priority 2018, dated 2025).

Data set [1] concerns the target recombinant human Adenosine A2A (FAST-002C) receptor (Homo sapiens, UniProt P29274). As to the kind of experiment: cAMP HTRF assay, Adenosine A2A receptor, antagonist mode. The class given is cell-based. On the technique in general: In TR-FRET formats the signal depends on donor and acceptor labels being close together.
For data set [2], the target named is T1, recombinant human Adenosine A3 (FAST-004C) receptor (Homo sapiens, UniProt P0DMS8).
T1 sequence (P0DMS8 1-318): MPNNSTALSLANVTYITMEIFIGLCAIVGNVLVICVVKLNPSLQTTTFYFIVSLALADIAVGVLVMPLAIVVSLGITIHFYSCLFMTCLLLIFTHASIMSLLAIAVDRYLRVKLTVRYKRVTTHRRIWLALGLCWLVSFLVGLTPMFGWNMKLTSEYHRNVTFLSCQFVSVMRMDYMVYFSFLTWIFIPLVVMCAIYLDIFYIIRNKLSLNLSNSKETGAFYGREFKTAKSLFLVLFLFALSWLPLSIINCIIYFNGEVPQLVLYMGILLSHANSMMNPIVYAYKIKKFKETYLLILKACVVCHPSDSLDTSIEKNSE
Kind of data set: cAMP HTRF assay, Adenosine A3 receptor, antagonist mode. The class given is cell-based.

Data set [3] relates to MDA-MB-231 breast cancer cell lines. Kind of data set: cytotoxicity, control cells vs cells overexpressing CYP1A1. The class given is cell-based. From the text:
The dependence of each compound's cytotoxic effects upon CYP1A1 was also examined, via screening of MDA-MB-231 breast cancer cell lines for cytotoxic response. The CYP1A1-dependence of the cytotoxic response of to each tested compound was specifically determined by comparing the cytotoxicity of each compound administered to control cells with that of the compound administered to corresponding cells that overexpressed CYP1A1. […]

The test system of data set [4] is MDA-MB-468 and ZR51 breast cancer and JHH7 liver cancer cell lines.
The target of data set [5] is T2, recombinant human Adenosine A1 (FAST-001C) receptor (Homo sapiens, UniProt P30542).
T2 sequence (P30542 1-326): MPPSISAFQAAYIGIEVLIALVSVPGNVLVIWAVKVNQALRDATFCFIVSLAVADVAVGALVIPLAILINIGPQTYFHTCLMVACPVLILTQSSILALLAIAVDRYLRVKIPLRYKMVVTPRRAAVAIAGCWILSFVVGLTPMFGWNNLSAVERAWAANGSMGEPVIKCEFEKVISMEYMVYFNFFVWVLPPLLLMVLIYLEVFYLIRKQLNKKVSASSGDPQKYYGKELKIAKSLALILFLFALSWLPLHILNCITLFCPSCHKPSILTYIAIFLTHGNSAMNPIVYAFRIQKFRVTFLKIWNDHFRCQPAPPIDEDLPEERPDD
Kind of data set: cAMP HTRF assay, Adenosine A1 receptor, antagonist mode. The note with it: for inhibition: CHO-K1, read-out: % Inhibition Average at maximal concentration; for Hill Coefficient: antagonist mode dose-response fit. Also noted: inhibition: dose or concentration left out as unconfirmed.

Data set [6] addresses T3, recombinant human Adenosine A2B (FAST-003C) receptor (Homo sapiens, UniProt P29275).
T3 sequence (P29275 1-332): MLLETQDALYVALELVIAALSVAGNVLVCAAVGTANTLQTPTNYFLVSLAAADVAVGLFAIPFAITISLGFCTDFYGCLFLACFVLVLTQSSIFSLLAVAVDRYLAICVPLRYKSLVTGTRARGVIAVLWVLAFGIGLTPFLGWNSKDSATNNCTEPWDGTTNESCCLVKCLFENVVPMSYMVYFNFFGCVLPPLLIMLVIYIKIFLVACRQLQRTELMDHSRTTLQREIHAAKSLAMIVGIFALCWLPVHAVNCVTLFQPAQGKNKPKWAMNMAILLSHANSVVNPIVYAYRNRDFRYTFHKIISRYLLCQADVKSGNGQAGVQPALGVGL
As to the kind of experiment: cAMP HTRF assay, Adenosine A2B receptor, antagonist mode. Also noted: inhibition: dose or concentration left out as unconfirmed. The conditions noted are these: for inhibition: HEK293, read-out: % Inhibition Average at maximal concentration; for Hill Coefficient: antagonist mode dose-response fit.

A further data set relates to 578 cancer cell lines. As to the kind of experiment: PRISM multiplexed cellular viability screening. The class given is cell-based. The conditions noted are these: relation to FOXA1 / FOXA1 target expression across cell lines. The method, then:
The instant discovery was made using large-scale multiplex profiling of existing drugs against 578 cancer cell lines, employing a PRISM multiplexed cellular viability assay.
Parental cell lines were obtained from the Cancer Cell Line Encyclopedia (CCLE) project (1). PRISM cell line barcoding, pooling, and screening was performed as previously described with several improvements to the original method (2). First, the lentiviral vector was modified to encode the unique barcode identifier at the end of the puromycin resistance gene. This enables barcodes to be detected using a variant of the mRNA capture and Luminex detection method developed for the L1000 gene expression assay (3). Second, a set of ten inert barcodes were spiked-in to each well of each plate after cell lysis to control for variation in PCR amplification as detailed below.
Luminex technology produced .Ixb files containing data for each Luminex bead observed during detection. These .Ixb files were processed to compute Median Fluorescence Intensity (MFI) values, calculated as the median of the values obtained for all beads corresponding to a single PRISM barcode.
MFI values were log-transformed (log MFI) and used to perform basic quality control. To detect probable screening artifacts, log MFI values were centered to the median log MFI for each cell line on each plate in order to put the measurements from each cell line on the same scale. For each well on each plate, the median of these centered values was then standardized according to the global median and global MAD across all plate wells in the same position. Data from wells with a standardized score of greater than 5 or less than −5 were excluded from all further processing steps.
For each cell line on each plate, the distribution of MFI values observed for the DMSO-treated negative controls was compared to that of the positive controls using a robust form of the Strictly Standardized Mean Difference (SSMD*)′. Specifically, SSMD* was calculated as: […]
Data corresponding to SSMD values less than 2 were removed before calculating cell viability.
The data in the instant disclosure were produced according to two different screening protocols. In the PR500 protocol, ten inert barcodes were spiked-in to each well of each plate after cell lysis. For data produced using the PR500 protocol, normalized MFI (nMFI) values were computed by taking the ratio of each MFI value against the median of the inert barcodes within each well. […]
Cell viability was calculated as the ratio of nMFI to the median of the nMFI from the DMSO-treated negative controls for each cell line on each plate. […] The final viability values were calculated as the median of the batch-corrected cell viabilities from biological replicates for each cell line, compound and dose. […]

Data set [7] relates to MDA-MB-468 breast cancer cells. As to the kind of experiment: Western immunoblot of treated cells over 24 hours. It is filed as cell-based. The conditions noted are these: FIG. 18. The procedure: Adherent cells were washed once with cold 1×PBS (Corning #01018002) and lysed with RIPA buffer (Sigma #R0278) supplemented by protease and phosphatase inhibitors (Sigma). Protein content was quantified using the DC Protein Assay (BioRad #5000111). Samples were reduced with (loading buffer) and boiled at 95° C. before being resolved by SDS gel electrophoresis on 4-20% Tris/glycine gels (Invitrogen). Proteins were transferred using the IBlot2 (Thermo #IB21001) onto the iBlot™ 2 nitrocellulose Transfer Stacks (Thermo #IB23001). The membranes were then blocked in Odyssey Blocking Buffer (Li-COR #927-40000) for one hour, and then probed overnight with primary antibodies diluted in blocking buffer. The following day, membranes were washed 3×5 mins with 1×TBST and then probed with LiCOR Infrared secondary antibodies for 1 hour at room temperature. Membranes were washed an additional 3×5 mins in 1×TBST and then imaged using the LiCOR Imager. […]
(A western blot detects proteins with antibodies after separation by electrophoresis.)

The test system of data set [8] is MDA-MB-468 breast cancer cells possessing AHR knockout. As to the kind of experiment: dose response in AHR knockout (AHR_sg3) cells. The class given is cell-based. The conditions noted are these: FIG. 17. From the text: Biological replicates were averaged and normalized to vehicle control. Dose curves were generated using Graphpad Prism.
The test system of data set [9] is Twelve different breast cancer cell lines. As to the kind of experiment: adenosine receptor antagonists and agonists dosed on twelve breast cancer cell lines. The note with it: 32 adenosine receptor antagonists/agonists compared; FIG. 6B. It is filed as cell-based.
The target of the next data set is T4, A3 receptors (Homo sapiens, UniProt P0DMS8).
T4 sequence (P0DMS8 1-318): T1 sequence (P0DMS8 1-318)
The note with it: previously characterized; cited from earlier work.

The mark [10] stands for this setting: HEK293, read-out: % Inhibition Average at maximal concentration.
The mark [11] stands for this setting: antagonist mode dose-response fit.
Where [12] appears, read: antagonist mode; HEK293; reference agonist NECA.
The mark [13] stands for this setting: CHO-K1; read-out: % Inhibition Average at maximal concentration.
[14] abbreviates: HEK293; read-out: % Inhibition Average at maximal concentration.

Read-outs that look alike come from different tables or passages of the source. Where only a bound is given, the exact number is not on record here.

Chain of recombinant human Adenosine A2A (FAST-002C) receptor (P29274 whole entry): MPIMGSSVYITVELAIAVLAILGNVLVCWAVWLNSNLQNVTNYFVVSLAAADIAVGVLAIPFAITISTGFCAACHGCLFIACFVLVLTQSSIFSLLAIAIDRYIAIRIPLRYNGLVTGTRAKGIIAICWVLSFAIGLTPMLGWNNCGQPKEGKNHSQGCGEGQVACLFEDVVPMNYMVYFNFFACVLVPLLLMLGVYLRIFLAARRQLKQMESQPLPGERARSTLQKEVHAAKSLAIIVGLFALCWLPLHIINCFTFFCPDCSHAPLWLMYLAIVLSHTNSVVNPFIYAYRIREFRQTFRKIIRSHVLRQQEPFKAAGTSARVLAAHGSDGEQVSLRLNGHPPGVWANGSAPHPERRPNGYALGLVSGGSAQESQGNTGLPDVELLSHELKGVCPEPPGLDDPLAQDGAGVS

Take `Cc1ccc(-c2nc3c4cc(Cl)ccc4nc(N)n3n2)o1` [BRO-013]: the inhibition at 10 µM worked out at 112% in data set [1] (setting [10]) and 74.2% in data set [2] (setting [13]). For the same molecule, the “Hill Coefficient” value is on record as 1.39 in [1] (setting [11]), 1.04 in [2] (setting [11]), 1.18 in data set [5] and 1.76 in data set [6]. The IC50 in data set [1] (setting [12]) came to 27.2 nM; in [2] (antagonist mode; CHO-K1; reference agonist IB-MECA) it was 730 nM; in data set [5], 7.94 nM; in data set [6] it was 116 nM. Further, the “CYP1A1-dependence of the cytotoxic response” value (shortened to “CYP1A1-dependence”) in data set [3] is “CYP1A1-dependent cytotoxic”. The “AHR-dependence of the cytotoxic response” value in data set [4] is on record as “dependence upon AHR”. Also, the inhibition in data set [5] turned out to be 107%; in data set [6] it was 110%.
On to `Cc1cc(-c2nc3cc(F)ccc3s2)ccc1NC(=O)[C@@H](N)CCCCN.Cl.Cl` [Phortress], for which the “cell killing profile in PRISM” value with 578 cancer cell lines is listed as “more broadly cytotoxic”. For the same molecule, in data set [7] (24 hour time course), the CYP1A1 expression entry is reported as “induced CYP1A1 expression” and the FOXA1 levels entry is recorded as “maintenance of FOXA1 levels”. The “DNA double stranded breaks (pH2A.X) and PARP cleavage” value in data set [7] (within 24 hours) is reported as “induced DNA double stranded breaks”. In data set [8] (10 μM), the “rescue of killing by AHR knockout” value is recorded as “AHR knockout did not rescue cells from Phortress killing”. Further, the “cytotoxicity at high doses” value in data set [8] (AHR knockout cells) is reported as “non-specific cytotoxicity at high doses”.
In the case of `Clc1ccc2ncn3nc(-c4ccco4)nc3c2c1` [BRO-022, 9-chloro-2-(furan-2-yl)-[1,2,4]triazolo[1,5-c]quinazoline], in data set [1] (setting [14]), the inhibition at 10 µM was determined as 60.7%. In [2] (setting [13]), the inhibition at 10 µM worked out at 29.5%. Moreover, in data set [5], the half-inhibitory concentration (IC50) was 170 nM, the inhibition amounted to 101% and the “Hill Coefficient” value came out at 1.06. For the same molecule, in data set [6], the IC50 was 2500 nM, the inhibition was found to be 97.8% and the “Hill Coefficient” value was 1.39.
With `O=C(Cc1ccccc1)Nc1nc2ccc(Cl)cc2c2nc(-c3ccco3)nn12` [MRS-1220, reference compound], the “CYP1A1-dependence” value in data set [3] is “CYP1A1-dependent cytotoxic”. The “cytotoxicity to breast cancer cell lines” value in [9] is given as “cytotoxic”. Besides, in the data set with 578 cancer cell lines, the “cell killing profile in PRISM” value is reported as “cell killing profile specific for such FOXA1-dependent cancer cell lines”. Also, the “AHR-dependence of the cytotoxic response” value in data set [4] is “dependence upon AHR”.
Take `Nc1nc2c(cnn2CCc2ccccc2)c2nc(-c3ccco3)nn12` [SCH-58261]: the “CYP1A1-dependence” value in data set [3] is “CYP1A1-dependent cytotoxic”. For the same molecule, the “cytotoxicity to breast cancer cell lines” value in data set [9] was “cytotoxic”. Further, the “cell killing profile in PRISM” value in the data set with 578 cancer cell lines was “cell killing profile specific for such FOXA1-dependent cancer cell lines”. The “AHR-dependence of the cytotoxic response” value in data set [4] is “dependence upon AHR”. In addition, the Ki at A3 receptors was above 10000 nM.
With `C=C1Nc2ccccc2-c2nc(-c3ccco3)nn21`, the inhibition at 10 µM in data set [1] (setting [14]) is 99.2%; in [2] (setting [13]) it was 31%. Moreover, the figures for the “Hill Coefficient” value in [1] (setting [11]), in [5] and in data set [6] were 1.72, 1.17 and 1.80, respectively. Also, the figures for the IC50 in data set [1] (setting [12]), in data set [5] and in [6] were 1330 nM, 493 nM and 2140 nM, respectively. Also, the “CYP1A1-dependence” value in [3] was “CYP1A1-dependent cytotoxic”. Further, the “AHR-dependence of the cytotoxic response” value in data set [4] is “dependence upon AHR”. Besides, the figures for the inhibition in data set [5] and in data set [6] were 96.1% and 109%, respectively.
For the molecule `CN(C)c1nc2ccc(Cl)cc2c2nc(-c3ccco3)nn12` [BRO-020, 9-chloro-2-(furan-2-yl)-N,N-dimethyl-[1,2,4]triazolo[1,5-c]quinazolin-5-amine], the inhibition at 10 µM in [1] (setting [10]) was determined as 18.4%. In addition, the inhibition at 10 µM in [2] (CHO-K1, read-out: % Inhibition Average at maximal concentration) is 8.55%. In data set [5], the IC50 is 72.4 nM, the inhibition was found to be 81.1% and the “Hill Coefficient” value was found to be 0.83. Further, the inhibition in data set [6] was determined as 9.09%.

The term IC50 denotes the midpoint of a concentration-inhibition curve. What is called Ki is the equilibrium dissociation constant of an inhibitor or competing ligand from its target.
